Reference: patent US7700300B2, “Screening of compounds for GAT2 transporter activity” (XenoPort, Inc., priority 2005, dated 2010)

Tests used:
hGAT2 = molecular target: T1, hGAT2 (Homo sapiens, UniProt Q9NSD5); test: hGAT2 competition uptake assay with 3H-GABA in HEK-TREx-hGAT2 cells; assay type: cell-based
T1 construct: expressed in transfected cells; host or cells: HEK-TREx cells (HEK-TREx-GAT2 inducible cell line)
T1 sequence (Q9NSD5 1-602): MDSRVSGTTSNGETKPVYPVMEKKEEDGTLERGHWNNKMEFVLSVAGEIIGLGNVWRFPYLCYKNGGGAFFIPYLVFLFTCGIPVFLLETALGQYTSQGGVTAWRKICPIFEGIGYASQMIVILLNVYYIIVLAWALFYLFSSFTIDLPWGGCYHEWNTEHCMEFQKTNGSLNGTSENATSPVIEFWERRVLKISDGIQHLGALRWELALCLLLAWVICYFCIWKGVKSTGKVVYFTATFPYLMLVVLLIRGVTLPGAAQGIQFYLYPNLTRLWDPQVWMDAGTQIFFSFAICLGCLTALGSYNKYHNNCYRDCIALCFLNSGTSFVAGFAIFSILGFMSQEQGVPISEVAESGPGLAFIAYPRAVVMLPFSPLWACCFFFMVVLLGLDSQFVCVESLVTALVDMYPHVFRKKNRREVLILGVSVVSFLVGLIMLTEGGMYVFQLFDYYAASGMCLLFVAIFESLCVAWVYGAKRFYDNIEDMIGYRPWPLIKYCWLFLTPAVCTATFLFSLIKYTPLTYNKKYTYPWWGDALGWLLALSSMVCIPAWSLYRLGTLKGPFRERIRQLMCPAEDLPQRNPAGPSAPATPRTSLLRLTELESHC
Method: A modified competition uptake assay can be developed to determine the ability of a test compound(s) to inhibit the uptake of radiolabeled substrates into HEK-TREx-hGAT2 cells induced to over-express hGAT2. The results can be stated as affinities (IC50).
The competition uptake assay is prepared as follows: Compounds are prepared for assay by diluting a 100 mM stock concentration (in DMSO) to the appropriate working concentration. Typically, seven-point dose response curves are prepared starting at a final assay concentration of 1 mM and carrying out three-fold dilutions. […]
Scintillation fluid (200 μl) (Optiphase Supermix (Perkin Elmer) is added to each well, and the plate is covered with a 96-well adhesive plate cover and placed on a shaker for 10 minutes. The plates are counted on a 96-well plate scintillation counter for 60 sec/well. The data are analyzed using a sigmoidal dose response curve-fitting program (Prism, GraphPad, Inc, San Diego, Calif.; equation: one-site competition).
FIG. 2 depicts the results of a competition experiment using HEK-TREx-GAT2 cells. ^3H-GABA was used as the substrate and unlabeled GABA was used as the competitor. […] Non-specific uptake was determined by measuring the uptake into cells not induced to express the transporter (“no tet”). […]

PgP = molecular target: T2, PgP (Homo sapiens, UniProt P08183); test: Transwell monolayer efflux assay in MDCK cells with TREx-PgP; assay type: cell-based; details: 2.5 nM 3H-vinblastine, 250 μM verapamil
T2 construct: expressed in transfected cells; host or cells: MDCK cells
Method: Transwell monolayer efflux assays can be performed by transfecting MDCK cells with the tetracycline-inducible TREx-PgP expression vector. The cells optionally can be transfected with a nucleic acid encoding the transporter of interest. The transfected cells are seeded on polycarbonate filter membranes in transwell dishes and grown for 3-5 days, yielding a polarized monolayer with tight junctions between cells.

T2 sequence (P08183 whole entry): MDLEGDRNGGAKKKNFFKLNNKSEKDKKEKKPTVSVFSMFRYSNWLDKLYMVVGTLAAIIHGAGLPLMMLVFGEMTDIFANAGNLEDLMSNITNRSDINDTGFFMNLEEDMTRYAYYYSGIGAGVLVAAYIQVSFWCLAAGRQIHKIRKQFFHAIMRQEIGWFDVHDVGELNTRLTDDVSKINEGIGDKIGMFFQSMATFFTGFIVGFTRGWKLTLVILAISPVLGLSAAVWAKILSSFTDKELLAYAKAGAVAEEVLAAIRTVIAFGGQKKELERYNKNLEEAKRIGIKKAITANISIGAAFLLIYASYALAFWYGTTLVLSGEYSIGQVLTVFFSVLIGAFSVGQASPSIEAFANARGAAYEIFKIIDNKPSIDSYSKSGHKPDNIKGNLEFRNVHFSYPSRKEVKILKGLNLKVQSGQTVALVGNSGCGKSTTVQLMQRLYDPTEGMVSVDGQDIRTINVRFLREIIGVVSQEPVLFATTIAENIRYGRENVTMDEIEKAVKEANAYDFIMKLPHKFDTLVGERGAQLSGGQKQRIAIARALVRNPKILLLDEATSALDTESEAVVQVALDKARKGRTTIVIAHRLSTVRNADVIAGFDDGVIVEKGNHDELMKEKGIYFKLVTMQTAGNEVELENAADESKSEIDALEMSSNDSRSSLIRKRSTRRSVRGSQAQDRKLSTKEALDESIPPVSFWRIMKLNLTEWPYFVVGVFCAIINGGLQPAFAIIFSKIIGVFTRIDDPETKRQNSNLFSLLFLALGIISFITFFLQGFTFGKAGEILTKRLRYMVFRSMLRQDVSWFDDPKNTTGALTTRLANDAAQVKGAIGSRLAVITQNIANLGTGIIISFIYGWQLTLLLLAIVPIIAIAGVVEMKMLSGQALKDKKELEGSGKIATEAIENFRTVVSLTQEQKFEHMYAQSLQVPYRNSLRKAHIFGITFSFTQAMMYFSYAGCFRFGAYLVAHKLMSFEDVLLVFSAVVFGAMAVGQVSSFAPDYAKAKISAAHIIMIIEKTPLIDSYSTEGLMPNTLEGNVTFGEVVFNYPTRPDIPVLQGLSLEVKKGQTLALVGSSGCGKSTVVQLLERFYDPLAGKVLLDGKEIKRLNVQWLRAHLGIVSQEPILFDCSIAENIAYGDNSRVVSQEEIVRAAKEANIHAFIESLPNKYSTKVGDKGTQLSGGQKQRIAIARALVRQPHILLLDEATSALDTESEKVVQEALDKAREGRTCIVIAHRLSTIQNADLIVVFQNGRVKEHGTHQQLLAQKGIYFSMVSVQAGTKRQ

| uptake of labeled GABA as concentration of unlabeled GABA increased (hGAT2; HEK-TREx-GAT2 cells induced to express GAT2, FIG. 2) | IC50 (hGAT2; HEK-TREx-GAT2 cells induced to express hGAT2, 3H-GABA as substrate) [µM] | Apical to basolateral transport in the presence of verapamil (PgP) | Basolateral to apical transport in the presence of verapamil (PgP) | Compound |
| --- | --- | --- | --- | --- |
| decreased | 13 | – | – | NCCCC(=O)O [GABA, gamma-aminobutyric acid] |
| – | – | strongly increased | strongly decreased | CC[C@]1(O)C[C@@H]2CN(CCc3c([nH]c4ccccc34)[C@@](C(=O)OC)(c3cc4c(cc3OC)N(C)[C@H]3[C@@](O)(C(=O)OC)[C@H](OC(C)=O)[C@]5(CC)C=CCN6CC[C@]43[C@@H]65)C2)C1 [^3H-vinblastine, vinblastine] |
